One assay relates to IL-1β production in PMA-differentiated THP-1 cells. Put plainly: IL-1β production in PMA-differentiated THP-1 cells stimulated with gramicidin (hTHP-1 assay containing 2% fetal bovine serum). As to conditions: Homo sapiens, THP-1, Table B1; 2% fetal bovine serum; cells printed as numeric bound; read-out: hTHP-1 IC50 (Average IC50 of compounds in hTHP-1 assay). Format: cell-based, human. In a few lines: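 THP-1 cells were differentiated with PMA 20 ng/ml for 16-18 h, then plated at 50,000 cells/well in RPMI with 2% FBS. They were preincubated 1 h with compound (100–0.0017 μM final, 0.37% DMSO), then stimulated with gramicidin 5 μM for 2 h. Supernatant IL-1β was measured by HTRF.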
`CC(C)c1cc2c(c(C(C)C)c1CC(=O)N=S(N)(=O)c1ccn(C(F)F)n1)COC2` (single isomer, unassigned) [Example 320, (S) or (R)-N-(amino(1-(difluoromethyl)-1H-pyrazol-3-yl)(oxo)-λ^6-sulfaneylidene)-2-(4,6-diisopropyl-1,3-dihydroisobenzofuran-5-yl)acetamide]: the 50% inhibitory concentration (IC50) was above 30 µM.

Turning to `CNCc1ccc(S(N)(=O)=NC(=O)Cc2c(C(C)C)cc(C(F)F)nc2C(C)C)cc1` (single isomer, unassigned) [Example 323, (S) or (R)-N-(amino(4-((methylamino)methyl)phenyl)(oxo)-λ^6-sulfaneylidene)-2-(6-(difluoromethyl)-2,4-diisopropylpyridin-3-yl)acetamide], the IC50 was above 30 µM.

In the case of `CC(C)c1cc(C(F)F)cc(C(C)C)c1CC(=O)N=S(N)(=O)c1ccc(CN(C)C)nc1` (single isomer, unassigned) [Example 327, (S) or (R)-N-(amino(6-((dimethylamino)methyl)pyridin-3-yl)(oxo)-λ^6-sulfaneylidene)-2-(4-(difluoromethyl)-2,6-diisopropylphenyl) acetamide], the IC50 is above 30 µM.

Turning to `CNCc1ccc(S(N)(=O)=NC(=O)Cc2c(C(C)C)cc(C(F)F)cc2C(C)C)cc1` (single isomer, unassigned) [Example 329, (S) or (R)-N-(amino(4-((methylamino)methyl)phenyl)(oxo)-λ^6-sulfaneylidene)-2-(4-(difluoromethyl)-2,6-diisopropylphenyl) acetamide], the IC50 was above 30 µM.

Take `CC(C)c1cc(C(F)F)nc(C(C)C)c1CC(=O)N=S(N)(=O)c1ccc(CN(C)C)cc1` (single isomer, unassigned) [Example 332, (S) or (R)-N-(amino(4-((dimethylamino)methyl)phenyl)(oxo)-λ^6-sulfaneylidene)-2-(6-(difluoromethyl)-2,4-diisopropylpyridin-3-yl)acetamide]: the IC50 is above 30 µM.

`CC(C)c1cc(C#N)c(F)c(C(C)C)c1CC(=O)N=S(N)(=O)c1cnc(C(C)(O)CO)s1` (single isomer, unassigned) [Example 335, (R, S) or (S, S)-N-(amino(2-(1,2-dihydroxypropan-2-yl)thiazol-5-yl)(oxo)-λ^6-sulfaneylidene)-2-(4-cyano-3-fluoro-2,6-diisopropylphenyl) acetamide]: the IC50 was above 30 µM.

On to `CC(C)c1cc2c(c(C(C)C)c1CC(=O)N=S(N)(=O)c1cnc(C(C)(O)CO)s1)COC2` (single isomer, unassigned) [Example 339, (R, S) or (S, S)-N-(amino(2-(1,2-dihydroxypropan-2-yl)thiazol-5-yl)(oxo)-λ^6-sulfaneylidene)-2-(4,6-diisopropyl-1,3-dihydroisobenzofuran-5-yl)acetamide], for which the 50% inhibitory concentration (IC50) is above 30 µM.

The same assay, now with this note: Homo sapiens, THP-1, Table B1; 2% fetal bovine serum; class symbols; read-out: hTHP-1 IC50 (Average IC50 of compounds in hTHP-1 assay).
As to `CC(C)c1cc2c(c(C(C)C)c1CC(=O)N=S(N)(=O)c1ccn(C(F)F)n1)COC2` (single isomer, unassigned) [Example 319, (R) or (S)-N-(amino(1-(difluoromethyl)-1H-pyrazol-3-yl)(oxo)-λ^6-sulfaneylidene)-2-(4,6-diisopropyl-1,3-dihydroisobenzofuran-5-yl)acetamide], the concentration for half-maximal inhibition (IC50) was 5 to 30 µM.

As to `CNCc1ccc(S(N)(=O)=NC(=O)Cc2c(C(C)C)cc(C(F)F)nc2C(C)C)cc1` (single isomer, unassigned) [Example 324, (R) or (S)-N-(amino (4-((methylamino)methyl)phenyl)(oxo)-λ^6-sulfaneylidene)-2-(6-(difluoromethyl)-2,4-diisopropylpyridin-3-yl)acetamide], the IC50 was in the range of 5 to 30 µM.

On to `CC(C)c1cc(C(F)F)cc(C(C)C)c1CC(=O)N=S(N)(=O)c1ccc(CN(C)C)nc1` (single isomer, unassigned) [Example 328, (R) or (S)-N-(amino(6-((dimethylamino)methyl)pyridin-3-yl)(oxo)-λ^6-sulfaneylidene)-2-(4-(difluoromethyl)-2,6-diisopropylphenyl) acetamide], for which the IC50 is 1 to 5 µM.

`CNCc1ccc(S(N)(=O)=NC(=O)Cc2c(C(C)C)cc(C(F)F)cc2C(C)C)cc1` (single isomer, unassigned) [Example 330, (R) or (S)-N-(amino(4-((methylamino)methyl)phenyl)(oxo)-λ^6-sulfaneylidene)-2-(4-(difluoromethyl)-2,6-diisopropylphenyl) acetamide]: the IC50 was in the range of 1 to 5 µM.

As to `CC(C)c1cc(C(F)F)nc(C(C)C)c1CC(=O)N=S(N)(=O)c1ccc(CN(C)C)cc1` (single isomer, unassigned) [Example 331, (R) or (S)-N-(amino(4-((dimethylamino)methyl)phenyl)(oxo)-λ^6-sulfaneylidene)-2-(6-(difluoromethyl)-2,4-diisopropylpyridin-3-yl)acetamide], the IC50 fell in the range of 1 to 5 µM.

On to `CC(C)c1cc2c(c(C(C)C)c1CC(=O)N=S(N)(=O)c1cnc(C(C)(O)CO)s1)COC2` (single isomer, unassigned) [Example 338], for which the IC50 was 0.2 to 1 µM.

The assay is the same for the next values; noted with them: Homo sapiens, THP-1, Table B2; 2% fetal bovine serum; class symbols; read-out: hTHP-1 IC50 (Average IC50 of compounds in hTHP-1 assay).
Regarding `COc1cc(-c2cccc(C(C)C)c2CC(=O)N=S(N)(=O)c2cnc(C(C)(O)CO)s2)ccn1` (single isomer, unassigned) [Example 351, N-(amino(2-((S or R)-1,2-dihydroxypropan-2-yl)thiazol-5-yl)(oxo)-λ^6-sulfaneylidene)-2-(2-isopropyl-6-(2-methoxypyridin-4-yl)phenyl)acetamide], the IC50 fell in the range of 0.2 to 1 µM.

Consider `CC(C)c1cc(C#N)cc(C(C)C)c1CC(=O)N=S(=O)(NC#N)c1sc(C(C)(C)O)nc1CO` (single isomer, unassigned) [Example 358], for which the IC50 is 0.04 to 0.2 µM.

Consider `CC(C)c1cc(C#N)c(F)c(C(C)C)c1CC(=O)N=S(=O)(NC#N)c1cnc(C(C)(O)CO)s1` (single isomer, unassigned) [Example 359, N-(cyanamido(2-((R or S)-1,2-dihydroxypropan-2-yl)thiazol-5-yl)(oxo)-λ^6-sulfaneylidene)-2-(4-cyano-3-fluoro-2,6-diisopropylphenyl)acetamide], for which the concentration for half-maximal inhibition (IC50) lay in the range of 1 to 5 µM.

Consider `CC(C)c1cc(C#N)c(F)c(C(C)C)c1CC(=O)N=[S@](=O)(NC#N)c1cnc([C@](C)(O)CO)s1` (single isomer, unassigned) [Example 371], for which the 50% inhibitory concentration (IC50) lay within 5 to 30 µM.

The assay is the same for the next values; noted with them: Table B1; 2% fetal bovine serum; class symbols; read-out: hTHP-1 IC50 (Average IC50 of compounds in hTHP-1 assay).
In the case of `CC(C)c1cc2c(c(C(C)C)c1CC(=O)N=S(N)(=O)c1sc(C(C)(C)O)cc1F)COC2` (single isomer, unassigned) [Example 321, (R) or (S)-N-(amino (3-fluoro-5-(2-hydroxypropan-2-yl)thiophen-2-yl)(oxo)-λ^6-sulfaneylidene)-2-(4,6-diisopropyl-1,3-dihydroisobenzofuran-5-yl)acetamide], the 50% inhibitory concentration (IC50) was in the range of 0.04 to 0.2 µM.

Regarding `CC(C)c1cc2c(c(C(C)C)c1CC(=O)N=S(N)(=O)c1sc(C(C)(C)O)cc1F)COC2` (single isomer, unassigned) [Example 322, (S) or (R)-N-(amino (3-fluoro-5-(2-hydroxypropan-2-yl)thiophen-2-yl)(oxo)-λ^6-sulfaneylidene)-2-(4,6-diisopropyl-1,3-dihydroisobenzofuran-5-yl)acetamide], the IC50 is 5 to 30 µM.

For `CC(C)c1cc(C(F)F)cc(C(C)C)c1CC(=O)N=S(N)(=O)c1ccc(CN(C)C)cc1` (single isomer, unassigned) [Example 325, (R) or (S)-N-(amino (4-((dimethylamino)methyl)phenyl)(oxo)-λ6-sulfaneylidene)-2-(4-(difluoromethyl)-2,6-diisopropylphenyl) acetamide], the 50% inhibitory concentration (IC50) lay in the range of 0.2 to 1 µM.

For the compound `CC(C)c1cc(C(F)F)cc(C(C)C)c1CC(=O)N=S(N)(=O)c1ccc(CN(C)C)cc1` (single isomer, unassigned) [Example 326, (S) or (R)-N-(amino(4-((dimethylamino)methyl)phenyl)(oxo)-λ^6-sulfaneylidene)-2-(4-(difluoromethyl)-2,6-diisopropylphenyl) acetamide], the IC50 lay within 5 to 30 µM.

Regarding `CC(C)c1cc(C#N)c(F)c(C(C)C)c1CC(=O)N=S(N)(=O)c1cnc(C(C)(O)CO)s1` (single isomer, unassigned) [Example 333], the IC50 fell in the range of 0.04 to 0.2 µM.

For the compound `CC(C)c1cc(C#N)c(F)c(C(C)C)c1CC(=O)N=S(N)(=O)c1cnc(C(C)(O)CO)s1` (single isomer, unassigned) [Example 334, (S, S) or (R, S)-N-(amino(2-(1,2-dihydroxypropan-2-yl)thiazol-5-yl)(oxo)-λ^6-sulfaneylidene)-2-(4-cyano-3-fluoro-2,6-diisopropylphenyl) acetamide], the IC50 is 5 to 30 µM.

For the compound `CC(C)c1cc(C#N)c(F)c(C(C)C)c1CC(=O)N=S(N)(=O)c1cnc(C(C)(O)CO)s1` (single isomer, unassigned) [Example 336, (R, R) or (S, R)-N-(amino(2-(1,2-dihydroxypropan-2-yl)thiazol-5-yl)(oxo)-λ^6-sulfaneylidene)-2-(4-cyano-3-fluoro-2,6-diisopropylphenyl) acetamide], the IC50 was in the range of 0.2 to 1 µM.

For `CC(C)c1cc(C#N)c(F)c(C(C)C)c1CC(=O)N=S(N)(=O)c1cnc(C(C)(O)CO)s1` (single isomer, unassigned) [Example 337, (S, R) or (R, R)-N-(amino(2-(1,2-dihydroxypropan-2-yl)thiazol-5-yl)(oxo)-λ^6-sulfaneylidene)-2-(4-cyano-3-fluoro-2,6-diisopropylphenyl) acetamide], the IC50 fell in the range of 0.008 to 0.04 µM.

The IC50 is the concentration that inhibits the measured activity by half.

Source of the values: US20230059136A1, “THE COMPOUNDS AND COMPOSITIONS FOR TREATING CONDITIONS ASSOCIATED WITH NLRP ACTIVITY” (Novartis AG, priority 2018, published 2023).
